Laboratory results reported in article PMC6385020 (Molecules, 2019).
Several values for one entry are separate records, joined by “and”; a condition that tells them apart may be missing. Equal entries are not always repeated.

Tests used:
[1] = tested on: G4-DNA structures (F-21-T, F-myc-T, F-21CTA-T, F-CEB25-WT-T); assay: FRET-melting assay (ligand-induced stabilization); format: binding, human; settings: 1 µM ligand, 0.2 µM DNA, all G4-DNA structures, K+1 or K+10 buffer
Protocol: (§1) For the G4-FID assay, the oligonucleotides were dissolved in K^+100 buffer (10 mM lithium cacodylate buffer pH 7.3, 100 mM KCl, 1% DMSO). Oligonucleotide concentrations were determined on the basis of their absorbance at 260 nm. For the fluorimetric titration, the oligonucleotides were dissolved in K^+100 buffer without DMSO. For the FRET-melting assay, the oligonucleotides were dissolved in K^+1 buffer (10 mM lithium cacodylate buffer pH 7.3, 1 mM KCl, 99 mM LiCl) except for F-21-T. F-21-T was dissolved in K^+10 buffer (10 mM lithium cacodylate buffer pH 7.3, 10 mM KCl, 90 mM LiCl).
(§2) Prior to use, all oligonucleotides were pretreated by heating at 95 °C for 5 min, then rapidly cooled to 4 °C to favor the intramolecular folding by kinetic trapping. Duplex-DNA ds26 was prepared by heating the self-complementary strand at 90 °C for 5 min in K^+1 buffer followed by a slow cooling over 6 h.
The stabilization of the compounds with a quadruplex-structure was monitored via FRET-melting assay performed in 96-well plates on a real-time PCR apparatus 7900HT Fast Real-Time PCR System as follows: 5 min at 25 °C and then an increase of 0.5 °C every minute until 95 °C. Each experimental condition was tested and replicated in a volume of 25 μL for each sample. The FRET-melting assay was performed with three dual fluorescently labeled DNA oligonucleotide sequences oligonucleotides. The donor fluorophore was 6-carboxyfluorescein, FAM, and the acceptor fluorophore was 6-carboxytetramethylrhodamine, TAMRA. The 96-well plates (Applied Biosystems) were prepared by aliquoting the annealed DNA (0.2 μM in K^+1 or K^+10 buffer) into each well, followed by 1 μL of the ligand ([…] (5 eq) in DMSO). For competition experiments, duplex competitors were added to 200 nM quadruplex sequences at final concentrations of 3.0 μM (15 eq) and 10.0 μM (50 eq), with a total reaction volume of 25 μL, with the labeled oligonucleotide (0.2 μM) and the ligand (1 μM). Measurements were made with excitation at 492 nm and detection at 516 nm. The change in the melting temperature at 1.0 μm compound concentration, ΔTm (1.0 μM), was calculated from at least two experiments by subtraction of the blank from the averaged melting temperature of each compound (1.0 μM). The final analysis of the data was carried out using Origin Pro 8.6 data analysis.

[2] = tested on: 22AG human telomeric sequence G4; assay: TO G4-FID assay; format: binding; settings: TO 2 eq, K+100 buffer
Protocol: as §1, §2
(§3) Each G4-FID assay was performed in a 96-well Non-Binding Surface black with black bottom polystyrene microplates (Corning). Every ligand was tested on a line of the microplate, in duplicate. The microplate was filled with (a) K^+100 solution (qs for 200 μL), (b) 10 μL of a solution of pre-folded oligonucleotides (5 μM) and fluorescent probe (TO/TO-PRO-3 (10 μM—2 eq) or PhenDV (7,5 µM—1.5 eq)), and (c) an extemporaneously prepared 5 μM ligand solution in K^+100 buffer (0 to 100 μL) along the line of the microplate, i.e., from column A to column H: 0, 0.125, 0.25, 0.375, 0.5, 0.625, 0.75, 1.0, 1.25, 1.5, 2.0, and 2.5 μM. After 5 min of orbital shaking at 500 rpm, fluorescence is measured using the following experimental parameters: positioning delay of 0.5 s, 20 flashes per well, emission/excitation filters for TO at 485/520, TO-PRO-3 at 620/670, and PhenDV at 355/520 gain adjusted at 80% of the fluorescence from the most fluorescent well (i.e., a well from column A for TO and a well from column H).
(§4) The percentage of TO displacement is calculated from the fluorescence intensity (F), using (1) % TO displacement=1−F/F0 where F0 is the fluorescence from the fluorescent probe bound to DNA without added ligand.
(§5) The PhenDV displacement is calculated from the fluorescence intensity F; F(ligand+probe), which refers to the fluorescence of the probe in presence of the ligand (without G4); and F0, which is the fluorescence without added ligand. The term F(ligand+probe) is necessary as the ligand can quench the fluorescence of the probe. The percentage of displacement is then plotted as a function of the concentration of the added ligand. The DNA affinity was evaluated by the concentration of ligand required to decrease the fluorescence of the probe by 50%, was noted DC50, and was determined after non-linear fitting of the displacement curve.

[3] = tested on: CEB25-WT minisatellite sequence G4; assay: TO G4-FID assay; format: binding; settings: TO 2 eq, K+100 buffer
Protocol: as §1, §2, §3, §4, §5

[4] = tested on: c-myc G4; assay: TO G4-FID assay; format: binding; settings: TO 2 eq, K+100 buffer
Protocol: as §1, §2, §3, §4, §5

[5] = tested on: duplex ds26 DNA; assay: TO G4-FID assay; format: binding; settings: ds26, K+100 buffer
Protocol: as §1, §2
Each G4-FID assay was performed in a 96-well Non-Binding Surface black with black bottom polystyrene microplates (Corning). Every ligand was tested on a line of the microplate, in duplicate. […] After 5 min of orbital shaking at 500 rpm, fluorescence is measured using the following experimental parameters: positioning delay of 0.5 s, 20 flashes per well, emission/excitation filters for TO at 485/520, TO-PRO-3 at 620/670, and PhenDV at 355/520 gain adjusted at 80% of the fluorescence from the most fluorescent well (i.e., a well from column A for TO and a well from column H).
as §4
The PhenDV displacement is calculated from the fluorescence intensity F; F(ligand+probe), which refers to the fluorescence of the probe in presence of the ligand (without G4); and F0, which is the fluorescence without added ligand. The term F(ligand+probe) is necessary as the ligand can quench the fluorescence of the probe. […]

[6] = tested on: 21CTA human telomeric sequence variant G4; format: binding; settings: PhenDV 1.5 eq, K+100 buffer
Protocol: as §1, §2, §3
In the case of PhenDV, the fluorescence of the unbound probe is not negligible. The percentage of displacement becomes (2) % PhenDV Displacement=F−F0/Fligand+probe−F0
as §5

[7] = tested on: c-myc (myc22) (DNA, G4) TGAGGGTGGGTAGGGTGGGTAA; assay: G4-FID, thiazole orange displacement; settings: 100 mM KCl; 10 mM lithium cacodylate pH 7.3, 1% DMSO; thiazole orange displaced; 1 µM compound, 0.25 µM DNA

| SMILES | ∆Tm (ligand-induced stabilization, FRET-melting) [1] [°C] | % of TO displacement at 1 µM of ligand [2] [%] | % of TO displacement at 1 µM of ligand [3] [%] | % of TO displacement at 1 µM of ligand [4] [%] | % of TO displacement at 1 µM of ligand [5] | % of PhenDV displacement at 1 µM of ligand [6] [%] | % TO displacement [7] [%] |
| --- | --- | --- | --- | --- | --- | --- | --- |
| CN(C)CCCNCc1ccc(-c2cc(-c3ccccn3)nc(-c3ccccn3)c2)cc1.[Cl-].[Cl][Pt+] [Pt-ctpy] | > 10 | 88 | 82 | 76 | < 20% and 17% | 100 | > 80 |
| [Cl-].[Cl][Pt+].c1ccc(-c2cc(-c3ccc(OCCN4CCCC4)cc3)nc(-c3ccccn3)n2)nc1 [Pt-cpym, Chloro-(2,4-di(pyridin-2-yl)-6-(4-(2-(pyrrolidin-1-yl)ethoxy)phenyl)pyrimidine)-platinum(II) Chloride] | < 10 | 67 | 43 | 33 | 2% | 72 | < 60 |
| Cc1ccc(-c2cc(-c3ccccn3)nc(-c3ccccn3)c2)cc1.[Cl-].[Cl][Pt+] [Pt-ttpy] | > 10 | 80 | 66 | 64 | < 20% | 90 | > 80 |
| CN(C)c1ccc(/C=C/c2cc(-c3ccccn3)nc(-c3ccccn3)n2)cc1.[Cl-].[Cl][Pt+] [Pt-vpym, Chloro-(E)-4-(2-(2,6-di(pyridin-2-yl)pyrimidin-4-yl)vinyl)-N,N-dimethylaniline-platinum(II) Chloride] | < 10 |  |  |  |  |  |  |
| [Cl-].[Cl][Pt+].c1ccc(-c2cccc(-c3ccccn3)n2)nc1 [Pt-tpy] | < 10 | 21 | 14 | 41 |  | 35 |  |
